Source: patent US6914045B2, “Glycopeptide antibiotics” (Wyeth Holdings Corporation, priority 2001, dated 2005)
Values after ≈ are worked out from the molar mass of the structure shown. Blank lines part the entries; values can stand above or below the compound they belong to.

Assays:
Test in all cases: in vitro antibacterial evaluation, MIC by broth dilution
Format in all cases: cell-based
Enterococcus sp. = conditions: broth dilution, 18 hours at 35° C.
Summary of the method: (§1)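 Broth dilution per NCCLS standard M7-A2 in Muller-Hinton II […], with an inoculum of 5×10^5 CFU/mL and antibiotic spanning 64-0.06 μg/mL. The MIC is the lowest concentration that inhibits growth of the organism.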

Staphylococcus sp. = conditions: broth dilution, 18 hours at 35° C.; for MIC Staphylococcus aureus (GC 1131): strain GC 1131; for MIC Staphylococcus aureus (ATCC 29213): strain ATCC 29213; for MIC Staphylococcus aureus (GC 3051): strain GC 3051; for MIC Staphylococcus aureus (GC 3053): strain GC 3053; for MIC Staphylococcus aureus (GC 4541): strain GC 4541; for MIC Staphylococcus aureus (GC 4542): strain GC 4542; for MIC Staphylococcus aureus-SMITH (GC 4543): strain GC 4543; for MIC Staphylococcus aureus (GC 4544): strain GC 4544; for MIC Staphylococcus aureus (GC 4545): strain GC 4545; for MIC Staphylococcus haemolyticus (GC 4546): strain GC 4546; for MIC Coagulase Negative Staphylococcus (GC 4547): strain GC 4547; for MIC Coagulase Negative Staphylococcus (GC 4548): strain GC 4548; for MIC Coagulase Negative Staphylococcus (GC 4549): strain GC 4549; for MIC Coagulase Negative Staphylococcus (GC 4551): strain GC 4551
Summary of the method: as §1

Streptococcus sp. = conditions: broth dilution, 18 hours at 35° C.
Summary of the method: as §1

Escherichia coli = conditions: 18 hours at 35° C.
[1] = inoculum 5×10^5 CFU/mL, strain ATCC 29212
[2] = inoculum 5×10^5 CFU/mL, strain GC 2242
[3] = inoculum 5×10^5 CFU/mL, strain GC 2243
[4] = inoculum 5×10^5 CFU/mL, strain GC 2691
[5] = inoculum 5×10^5 CFU/mL, strain GC 3059
[6] = inoculum 5×10^5 CFU/mL, strain GC 4552
[7] = inoculum 5×10^5 CFU/mL, strain GC 4553
[8] = inoculum 5×10^5 CFU/mL, strain GC 4554
[9] = inoculum 5×10^5 CFU/mL, strain GC 4556
[10] = inoculum 5×10^5 CFU/mL, strain GC 4557
[11] = inoculum 5×10^5 CFU/mL, strain GC 4558
[12] = inoculum 5×10^5 CFU/mL, strain GC 6189
[13] = inoculum 5×10^5 CFU/mL, strain ATCC 6301
[14] = inoculum 5×10^5 CFU/mL, strain GC 1894
[15] = inoculum 5×10^5 CFU/mL, strain GC 4563
[16] = inoculum 5×10^5 CFU/mL, strain GC 4564
[17] = inoculum 5×10^5 CFU/mL, strain GC 4565

MIC Enterococcus avium (GC 4558) (Enterococcus sp.): 2 µg/mL (≈ 1.4 µM)
MIC Enterococcus faecalis (ATCC 29212) (Enterococcus sp.): 1 µg/mL (≈ 0.702 µM)
MIC Enterococcus faecalis (GC 2242) (Enterococcus sp.): 1 µg/mL (≈ 0.702 µM)
MIC Enterococcus faecalis (GC 2691) (Enterococcus sp.): 2 µg/mL (≈ 1.4 µM)
MIC Enterococcus faecalis (GC 3059) (Enterococcus sp.): 1 µg/mL (≈ 0.702 µM)
MIC Enterococcus faecalis (GC 4552) (Enterococcus sp.): 1 µg/mL (≈ 0.702 µM)
MIC Enterococcus faecalis (GC 4553) (Enterococcus sp.): 2 µg/mL (≈ 1.4 µM)
MIC Enterococcus faecalis (GC 4554) (Enterococcus sp.): 2 µg/mL (≈ 1.4 µM)
MIC Enterococcus faecalis (GC 6189) (Enterococcus sp.): 0.5 µg/mL (≈ 0.351 µM)
MIC Enterococcus faecium (GC 2243) (Enterococcus sp.): 1 µg/mL (≈ 0.702 µM)
MIC Enterococcus faecium (GC 4556) (Enterococcus sp.): 1 µg/mL (≈ 0.702 µM)
MIC Enterococcus faecium (GC 4557) (Enterococcus sp.): 2 µg/mL (≈ 1.4 µM)
MIC Enterococcus faecalis (ATCC 29212) (Enterococcus sp.; [1]): 1 µg/mL (≈ 0.702 µM)
MIC Enterococcus faecalis (GC 2242) (Enterococcus sp.; [2]): 1 µg/mL (≈ 0.702 µM)
MIC Enterococcus faecium (GC 2243) (Enterococcus sp.; [3]): 1 µg/mL (≈ 0.702 µM)
MIC Enterococcus faecalis (GC 2691) (Enterococcus sp.; [4]): 2 µg/mL (≈ 1.4 µM)
MIC Enterococcus faecalis (GC 3059) (Enterococcus sp.; [5]): 1 µg/mL (≈ 0.702 µM)
MIC Enterococcus faecalis (GC 4552) (Enterococcus sp.; [6]): 1 µg/mL (≈ 0.702 µM)
MIC Enterococcus faecalis (GC 4553) (Enterococcus sp.; [7]): 2 µg/mL (≈ 1.4 µM)
MIC Enterococcus faecalis (GC 4554) (Enterococcus sp.; [8]): 2 µg/mL (≈ 1.4 µM)
MIC Enterococcus faecium (GC 4556) (Enterococcus sp.; [9]): 1 µg/mL (≈ 0.702 µM)
MIC Enterococcus faecium (GC 4557) (Enterococcus sp.; [10]): 2 µg/mL (≈ 1.4 µM)
MIC Enterococcus avium (GC 4558) (Enterococcus sp.; [11]): 2 µg/mL (≈ 1.4 µM)
MIC Enterococcus faecalis (GC 6189) (Enterococcus sp.; [12]): 0.5 µg/mL (≈ 0.351 µM)
MIC Staphylococcus aureus (GC 1131) (Staphylococcus sp.; inoculum 5×10^5 CFU/mL): 1 µg/mL (≈ 0.702 µM)
MIC Staphylococcus aureus (ATCC 29213) (Staphylococcus sp.): 0.5 µg/mL (≈ 0.351 µM)
MIC Staphylococcus aureus (GC 1131) (Staphylococcus sp.): 1 µg/mL (≈ 0.702 µM)
MIC Staphylococcus aureus (GC 3051) (Staphylococcus sp.): 1 µg/mL (≈ 0.702 µM)
MIC Staphylococcus aureus (GC 3053) (Staphylococcus sp.): 0.5 µg/mL (≈ 0.351 µM)
MIC Staphylococcus aureus (GC 4541) (Staphylococcus sp.): 0.5 µg/mL (≈ 0.351 µM)
MIC Staphylococcus aureus (GC 4542) (Staphylococcus sp.): 0.25 µg/mL (≈ 0.176 µM)
MIC Staphylococcus aureus-SMITH (GC 4543) (Staphylococcus sp.): 0.5 µg/mL (≈ 0.351 µM)
MIC Staphylococcus aureus (GC 4544) (Staphylococcus sp.): 1 µg/mL (≈ 0.702 µM)
MIC Staphylococcus aureus (GC 4545) (Staphylococcus sp.): 0.5 µg/mL (≈ 0.351 µM)
MIC Coagulase Negative Staphylococcus (GC 4547) (Staphylococcus sp.): 1 µg/mL (≈ 0.702 µM)
MIC Coagulase Negative Staphylococcus (GC 4548) (Staphylococcus sp.): 0.25 µg/mL (≈ 0.176 µM)
MIC Coagulase Negative Staphylococcus (GC 4549) (Staphylococcus sp.): 0.25 µg/mL (≈ 0.176 µM)
MIC Coagulase Negative Staphylococcus (GC 4551) (Staphylococcus sp.): 0.5 µg/mL (≈ 0.351 µM)
MIC Coagulase Negative Staphylococcus (GC 6257) (Staphylococcus sp.; strain GC 6257): 0.25 µg/mL (≈ 0.176 µM)
MIC Streptococcus agalactiae (GC 4564) (Streptococcus sp.): <0.06 µg/mL
MIC Streptococcus pneumoniae (ATCC 6301) (Streptococcus sp.): 0.12 µg/mL (≈ 0.0843 µM)
MIC Streptococcus pneumoniae (GC 1894) (Streptococcus sp.): <0.06 µg/mL
MIC Streptococcus pneumoniae (GC 4565) (Streptococcus sp.): <0.06 µg/mL
MIC Streptococcus pyogenes (GC 4563) (Streptococcus sp.): <0.06 µg/mL
MIC Streptococcus pneumoniae (ATCC 6301) (Streptococcus sp.; [13]): 0.12 µg/mL (≈ 0.0843 µM)
MIC Streptococcus pneumoniae (GC 1894) (Streptococcus sp.; [14]): <0.06 µg/mL
MIC Streptococcus pyogenes (GC 4563) (Streptococcus sp.; [15]): <0.06 µg/mL
MIC Streptococcus agalactiae (GC 4564) (Streptococcus sp.; [16]): <0.06 µg/mL
MIC Streptococcus pneumoniae (GC 4565) (Streptococcus sp.; [17]): <0.06 µg/mL
MIC Escherichia coli (GC 4559) (Escherichia coli): 32 µg/mL (≈ 22.5 µM)
MIC Escherichia coli (GC 4560) (Escherichia coli): 2 µg/mL (≈ 1.4 µM)
Compound: CC(c1ccc(Cl)cc1)C1NC(=O)CNC(=O)C(CO)NC(=O)C(C(O)C2CNC(=N)N2C2OC(CO)C(O)C(O)C2O)NC(=O)C(C(O)C2CNC(=N)N2)NC(=O)C(Cc2ccc(OC3OC(CO)C(OC4OC5COC(C6CCCCC6)OC5C(O)C4O)C(O)C3O)cc2)NC1=O (centres unmarked) [Example 193]
MIC Staphylococcus haemolyticus (GC 4546) (Staphylococcus sp.): 0.5 µg/mL (≈ 0.351 µM)

MIC Enterococcus avium (GC 4558) (Enterococcus sp.): 1 µg/mL (≈ 0.72 µM)
MIC Enterococcus faecalis (ATCC 29212) (Enterococcus sp.): 1 µg/mL (≈ 0.72 µM)
MIC Enterococcus faecalis (GC 2242) (Enterococcus sp.): 1 µg/mL (≈ 0.72 µM)
MIC Enterococcus faecalis (GC 2691) (Enterococcus sp.): 1 µg/mL (≈ 0.72 µM)
MIC Enterococcus faecalis (GC 3059) (Enterococcus sp.): 1 µg/mL (≈ 0.72 µM)
MIC Enterococcus faecalis (GC 4552) (Enterococcus sp.): 1 µg/mL (≈ 0.72 µM)
MIC Enterococcus faecalis (GC 4553) (Enterococcus sp.): 1 µg/mL (≈ 0.72 µM)
MIC Enterococcus faecalis (GC 4554) (Enterococcus sp.): 1 µg/mL (≈ 0.72 µM)
MIC Enterococcus faecalis (GC 6189) (Enterococcus sp.): 1 µg/mL (≈ 0.72 µM)
MIC Enterococcus faecium (GC 2243) (Enterococcus sp.): 1 µg/mL (≈ 0.72 µM)
MIC Enterococcus faecium (GC 4556) (Enterococcus sp.): 1 µg/mL (≈ 0.72 µM)
MIC Enterococcus faecium (GC 4557) (Enterococcus sp.): 0.5 µg/mL (≈ 0.36 µM)
MIC Enterococcus faecalis (ATCC 29212) (Enterococcus sp.; [1]): 1 µg/mL (≈ 0.72 µM)
MIC Enterococcus faecalis (GC 2242) (Enterococcus sp.; [2]): 1 µg/mL (≈ 0.72 µM)
MIC Enterococcus faecium (GC 2243) (Enterococcus sp.; [3]): 1 µg/mL (≈ 0.72 µM)
MIC Enterococcus faecalis (GC 2691) (Enterococcus sp.; [4]): 1 µg/mL (≈ 0.72 µM)
MIC Enterococcus faecalis (GC 3059) (Enterococcus sp.; [5]): 1 µg/mL (≈ 0.72 µM)
MIC Enterococcus faecalis (GC 4552) (Enterococcus sp.; [6]): 1 µg/mL (≈ 0.72 µM)
MIC Enterococcus faecalis (GC 4553) (Enterococcus sp.; [7]): 1 µg/mL (≈ 0.72 µM)
MIC Enterococcus faecalis (GC 4554) (Enterococcus sp.; [8]): 1 µg/mL (≈ 0.72 µM)
MIC Enterococcus faecium (GC 4556) (Enterococcus sp.; [9]): 1 µg/mL (≈ 0.72 µM)
MIC Enterococcus faecium (GC 4557) (Enterococcus sp.; [10]): 0.5 µg/mL (≈ 0.36 µM)
MIC Enterococcus avium (GC 4558) (Enterococcus sp.; [11]): 1 µg/mL (≈ 0.72 µM)
MIC Enterococcus faecalis (GC 6189) (Enterococcus sp.; [12]): 1 µg/mL (≈ 0.72 µM)
MIC Staphylococcus aureus (GC 1131) (Staphylococcus sp.; inoculum 5×10^5 CFU/mL): 0.25 µg/mL (≈ 0.18 µM)
MIC Staphylococcus aureus (ATCC 29213) (Staphylococcus sp.): 0.25 µg/mL (≈ 0.18 µM)
MIC Staphylococcus aureus (GC 1131) (Staphylococcus sp.): 0.25 µg/mL (≈ 0.18 µM)
MIC Staphylococcus aureus (GC 3051) (Staphylococcus sp.): 0.5 µg/mL (≈ 0.36 µM)
MIC Staphylococcus aureus (GC 3053) (Staphylococcus sp.): 0.5 µg/mL (≈ 0.36 µM)
MIC Staphylococcus aureus (GC 4541) (Staphylococcus sp.): 0.5 µg/mL (≈ 0.36 µM)
MIC Staphylococcus aureus (GC 4542) (Staphylococcus sp.): 0.25 µg/mL (≈ 0.18 µM)
MIC Staphylococcus aureus-SMITH (GC 4543) (Staphylococcus sp.): 0.5 µg/mL (≈ 0.36 µM)
MIC Staphylococcus aureus (GC 4544) (Staphylococcus sp.): 0.25 µg/mL (≈ 0.18 µM)
MIC Staphylococcus aureus (GC 4545) (Staphylococcus sp.): 0.25 µg/mL (≈ 0.18 µM)
MIC Coagulase Negative Staphylococcus (GC 4547) (Staphylococcus sp.): 0.25 µg/mL (≈ 0.18 µM)
MIC Coagulase Negative Staphylococcus (GC 4548) (Staphylococcus sp.): 0.25 µg/mL (≈ 0.18 µM)
MIC Coagulase Negative Staphylococcus (GC 4549) (Staphylococcus sp.): 0.25 µg/mL (≈ 0.18 µM)
MIC Coagulase Negative Staphylococcus (GC 4551) (Staphylococcus sp.): 0.25 µg/mL (≈ 0.18 µM)
MIC Streptococcus agalactiae (GC 4564) (Streptococcus sp.): <0.12 µg/mL
MIC Streptococcus pneumoniae (ATCC 6301) (Streptococcus sp.): <0.12 µg/mL
MIC Streptococcus pneumoniae (GC 1894) (Streptococcus sp.): <0.12 µg/mL
MIC Streptococcus pneumoniae (GC 4565) (Streptococcus sp.): <0.12 µg/mL
MIC Streptococcus pyogenes (GC 4563) (Streptococcus sp.): <0.12 µg/mL
MIC Streptococcus pneumoniae (ATCC 6301) (Streptococcus sp.; [13]): <0.12 µg/mL
MIC Streptococcus pneumoniae (GC 1894) (Streptococcus sp.; [14]): <0.12 µg/mL
MIC Streptococcus pyogenes (GC 4563) (Streptococcus sp.; [15]): <0.12 µg/mL
MIC Streptococcus agalactiae (GC 4564) (Streptococcus sp.; [16]): <0.12 µg/mL
MIC Streptococcus pneumoniae (GC 4565) (Streptococcus sp.; [17]): <0.12 µg/mL
MIC Escherichia coli (ATCC 25922) (Escherichia coli): 16 µg/mL (≈ 11.5 µM)
MIC Escherichia coli (GC 4559) (Escherichia coli): 16 µg/mL (≈ 11.5 µM)
MIC Escherichia coli (GC 4560) (Escherichia coli): 0.25 µg/mL (≈ 0.18 µM)
Compound: CC(C1CCCCC1)C1NC(=O)CNC(=O)C(CO)NC(=O)C(C(O)C2CNC(=N)N2C2OC(CO)C(O)C(O)C2O)NC(=O)C(C(O)C2CNC(=N)N2)NC(=O)C(Cc2ccc(OC3OC(CO)C(OC4OC5COC(c6ccccc6)OC5C(O)C4O)C(O)C3O)cc2)NC1=O (centres unmarked) [Example 201]
MIC Staphylococcus haemolyticus (GC 4546) (Staphylococcus sp.): 0.25 µg/mL (≈ 0.18 µM)
